In patent publication US20170304388A1, “NEW INDICATION OF CARDIOVASCULAR DRUGS FOR PREPARATION OF CANCER INHIBITION PHARMACEUTICAL COMPOSITION” (LAUNX BIOMEDICAL CO., LTD., priority 2014, published 2017):
Counter-ions that a name gives are not always drawn.

How the values were obtained:
Type in all cases: cell-based
[1] = test system: A375 (Amelanotic Melanoma); test: Cell viability analysis (WST-1), A375; settings: Homo sapiens, A-375, 72 h, Table 3, drug 10 μM, WST-1, OD450 nm, lower viability = better inhibition, read-out: survival rate (viability) of cancer cells, A375
[2] = test system: HCT116 (Colorectal Carcinoma); test: Cell viability analysis (WST-1), HCT116; settings: Homo sapiens, HCT-116, 72 h, Table 3, drug 10 μM, WST-1, OD450 nm, read-out: survival rate (viability) of cancer cells, HCT116 (WT)
[3] = test system: HepG2 (Hepatocellular Carcinoma); test: Cell viability analysis (WST-1), HepG2; settings: Homo sapiens, HepG2, 72 h, Table 3, drug 10 μM, WST-1, OD450 nm, read-out: survival rate (viability) of cancer cells, HepG2
[4] = test system: HeLa (Cervix Adenocarcinoma); test: Cell viability analysis (WST-1), HeLa; settings: Homo sapiens, HeLa, 72 h, Table 3, drug 10 μM, WST-1, OD450 nm, read-out: survival rate (viability) of cancer cells, HeLa
[5] = test system: AGS (Gastric Adenocarcinoma); test: Cell viability analysis (WST-1), AGS; settings: 72 h, Table 3, drug 10 μM, WST-1, OD450 nm, read-out: survival rate (viability) of cancer cells, AGS
[6] = test system: H1650 (Lung Adenocarcinoma); test: Cell viability analysis (WST-1), H1650; settings: Homo sapiens, NCI-H1650, 72 h, Table 3, drug 10 μM, WST-1, OD450 nm, read-out: survival rate (viability) of cancer cells, H1650
[7] = test system: MKN-45 (Gastric Adenocarcinoma); test: Cell viability analysis (WST-1), MKN-45; settings: Homo sapiens, MKN-45, 72 h, Table 3, drug 10 μM, WST-1, OD450 nm, read-out: survival rate (viability) of cancer cells, MKN-45
[8] = test system: TSGH-8301 (Urinary Bladder Carcinoma); test: Cell viability analysis (WST-1), TSGH-8301; settings: 72 h, Table 3, drug 10 μM, WST-1, OD450 nm, read-out: survival rate (viability) of cancer cells, TSGH
[9] = test system: A549 (Lung Adenocarcinoma); test: Cell viability analysis (WST-1), A549; settings: Homo sapiens, A549, 72 h, Table 3, drug 10 μM, WST-1, OD450 nm, read-out: survival rate (viability) of cancer cells, A549
[10] = test system: MCF7 (Mammary Gland, Adenocarcinoma); test: Cell viability analysis (WST-1), MCF7; settings: Homo sapiens, MCF7, 72 h, Table 3, drug 10 μM, WST-1, OD450 nm, read-out: survival rate (viability) of cancer cells, MCF7
[11] = test system: PC3 (Prostate Adenocarcinoma); test: Cell viability analysis (WST-1), PC3; settings: 72 h, Table 3, drug 10 μM, WST-1, OD450 nm, read-out: survival rate (viability) of cancer cells, PC3
[12] = test system: LoVo (Colorectal Adenocarcinoma); test: Cell viability analysis (WST-1), LoVo; settings: Homo sapiens, LoVo, 72 h, Table 3, drug 10 μM, WST-1, OD450 nm, read-out: survival rate (viability) of cancer cells, LoVo
[13] = test system: HL-60 (Acute Promyelocytic Leukemia); test: Cell viability analysis (WST-1), HL-60; settings: Homo sapiens, HL-60; Table 3; drug 10 μM, 72 hours, WST-1, OD450 nm; read-out: survival rate (viability) of cancer cells, HL-60
cancer cell lines = test: Growth inhibitory effects on the panel of cancer cell lines; settings: drug 10 μM, 72 hours; for Numbers of inhibitory effect on cancer cell line: count of cancer cell lines inhibited; for inhibition effect on different cancer cell lines (in words): WST-1

SMILES	viability at 10 µM [1] [%]	viability at 10 µM [2] [%]	viability at 10 µM [3] [%]	viability at 10 µM [4] [%]	viability at 10 µM [5] [%]	viability at 10 µM [6] [%]	viability at 10 µM [7] [%]	viability at 10 µM [8] [%]	viability at 10 µM [9] [%]	viability at 10 µM [10] [%]	viability at 10 µM [11] [%]	viability at 10 µM [12] [%]	viability at 10 µM [13] [%]	Numbers of inhibitory effect on cancer cell line (cancer cell lines)	inhibition effect on different cancer cell lines (in words) (cancer cell lines)
CCCSc1nc(N[C@@H]2C[C@H]2c2ccc(F)c(F)c2)c2nnn([C@@H]3C[C@H](OCCO)[C@@H](O)[C@H]3O)c2n1 [Ticagrelor]	60.1	73.6	94.5	126	100	76	114	86	85	83.1	84.1	79.6	93.7	0	significant inhibition effect
CCOC(=O)[C@H](CCc1ccccc1)N[C@@H](C)C(=O)N1[C@H](C(=O)O)C[C@@H]2CCC[C@@H]21 [Ramipril (Altace), Ramipril]	120	108	106	84.3	99.8	135	84	114	99.6	82.4	104	81.9	107	0	significant inhibition effect
CC(C)NC[C@H](O)COc1ccc(CCOCC2CC2)cc1 [Levobetaxolol HCl]	76.9	70.3	99.2	88.7	62.5	69.9	119	98.2	75.9	85	77.3	80	107	0	significant inhibition effect
Cc1c(OCC(F)(F)F)ccnc1C[S@@+]([O-])c1nc2ccccc2[nH]1 [Dexlansoprazole]	75.1	82.8	120	105	89.8	69.6	85.8	84.9	74.5	72.1	104	102	72.2	0	significant inhibition effect
COCCCOc1cc(C[C@@H](C[C@H](N)[C@@H](O)C[C@H](C(=O)NCC(C)(C)C(N)=O)C(C)C)C(C)C)ccc1OC [Aliskiren hemifumarate]	91.2	97.2	94.2	108	81.8	79.8	85.1	73.3	92	99.1	89	99.5	98.5	0	significant inhibition effect
CC(=O)O[C@H]1C[C@@H]2CC[C@@H]3[C@H](CC[C@@]4(C)[C@H]3C[C@H]([N+]3(C)CCCCC3)[C@@H]4OC(C)=O)[C@@]2(C)C[C@@H]1[N+]1(C)CCCCC1 [Pancuronium (Pavulon), Pancuronium]	75.4	102	92.7	83.3	120	91.7	95.3	68.3	100	110	108	79.8	109	0	significant inhibition effect
